In PubChem BioAssay AID260 (DTP/NCI, 2004):
Values joined by “and” are separate entries in the source; they are usually repeats but may differ in a detail not shown here. Identical values can stand only once. Inconclusive results and toxic doses are left out. Rule for the calls: active = survival T/C of 150% or more; inactive = T/C below 125% in these data.

Tested on: CD2F1 mice, intracerebral L1210 leukemia, survival T/C
Assay: NCI In Vivo Anticancer Drug Screen. Data for tumor model L1210 Leukemia (intracerebral) in CD2F1 (CDF1) mice
Conditions: higher = longer survival
Experimental: The antitumor activity of compounds was measured in mice bearing transplantable tumors. Survival or tumor size were measured and the results are expressed as the measurement made in the treated group (T) divided by the measurement made in the vehicle treated control group (C). The tumor model used in this assay is L1210 Leukemia (intracerebral) in CD2F1 (CDF1) mice

Measured: T/C

CC(CN1CC(=O)NC(=O)C1)N1CC(=O)NC(=O)C1 (configuration not stated)
active: endpoint: mean survival time, dose: 32.0 mg/kg/injection, schedule: Q01DX009 (ip), vehicle: Klucel (hydroxypropylcellulose) (HPC) 152 % of control | endpoint: mean survival time, dose: 64.0 mg/kg/injection, schedule: Q01DX009 (ip), vehicle: Klucel (hydroxypropylcellulose) (HPC) 163 % of control | endpoint: mean survival time, dose: 200.0 mg/kg/injection, schedule: Q04DX003 (ip), vehicle: steriod suspending solution 162 % of control
inactive: endpoint: mean survival time, dose: 8.0 mg/kg/injection, schedule: Q01DX009 (ip), vehicle: Klucel (hydroxypropylcellulose) (HPC) 123 % of control

CC1CN1C(=O)NCCCCCCNC(=O)N1CC1C (configuration not stated)
inactive: endpoint: median survival time, dose: 1.25 mg/kg/injection, schedule: Q01DX009 (ip), vehicle: Klucel (hydroxypropylcellulose) (HPC) 103 % of control | endpoint: median survival time, dose: 2.5 mg/kg/injection, schedule: Q01DX009 (ip), vehicle: Klucel (hydroxypropylcellulose) (HPC) 102 % of control | endpoint: median survival time, dose: 5.0 mg/kg/injection, schedule: Q01DX009 (ip), vehicle: Klucel (hydroxypropylcellulose) (HPC) 112 % of control | endpoint: median survival time, dose: 10.0 mg/kg/injection, schedule: Q01DX009 (ip), vehicle: Klucel (hydroxypropylcellulose) (HPC) 120 % of control | endpoint: median survival time, dose: 20.0 mg/kg/injection, schedule: Q01DX009 (ip), vehicle: Klucel (hydroxypropylcellulose) (HPC) 120 % of control

NC(=S)N/N=C/c1ccc(O)cn1
inactive: endpoint: median survival time, dose: 12.0 mg/kg/injection, schedule: Q01DX005 (ip), vehicle: saline 95 % of control and 105 % of control | endpoint: median survival time, dose: 24.0 mg/kg/injection, schedule: Q01DX005 (ip), vehicle: saline 107 % of control and 115 % of control | endpoint: median survival time, dose: 48.0 mg/kg/injection, schedule: Q01DX005 (ip), vehicle: saline 113 % of control and 117 % of control | endpoint: median survival time, dose: 96.0 mg/kg/injection, schedule: Q01DX005 (ip), vehicle: saline 121 % of control

CCCCN(C)N=Nc1c(C(N)=O)n[nH]c1C
inactive: endpoint: median survival time, dose: 16.0 mg/kg/injection, schedule: Q01DX005 (ip), vehicle: saline with Tween-80 108 % of control | endpoint: median survival time, dose: 32.0 mg/kg/injection, schedule: Q01DX005 (ip), vehicle: saline with Tween-80 112 % of control | endpoint: median survival time, dose: 64.0 mg/kg/injection, schedule: Q01DX005 (ip), vehicle: saline with Tween-80 96 % of control

CN(CCO)C1=C(N2CC2)C(=O)C(N(C)CCO)=C(N2CC2)C1=O
inactive: endpoint: mean survival time, dose: 0.5 mg/kg/injection, schedule: Q01DX009 (ip), vehicle: saline 106 % of control and 109 % of control | endpoint: mean survival time, dose: 1.0 mg/kg/injection, schedule: Q01DX009 (ip), vehicle: saline 111 % of control | endpoint: mean survival time, dose: 4.0 mg/kg/injection, schedule: Q01DX009 (ip), vehicle: saline 101 % of control

CC1(C)N=C(N)N=C(N)N1c1ccc(OCc2ccc(C(=O)Nc3cccc(S(=O)(=O)F)c3)cc2)c(Cl)c1
inactive: endpoint: mean survival time, dose: 50.0 mg/kg/injection, schedule: Q04DX003 (ip), vehicle: saline 111 % of control | endpoint: mean survival time, dose: 100.0 mg/kg/injection, schedule: Q04DX003 (ip), vehicle: saline 111 % of control

O=c1n(CC2CO2)c(=O)n(CC2CO2)c(=O)n1CC1CO1 (configuration not stated)
active: endpoint: median survival time, dose: 40.0 mg/kg/injection, schedule: Q01DX009 (ip), vehicle: saline 152 % of control
inactive: endpoint: median survival time, dose: 16.4 mg/kg/injection, schedule: Q01DX009 (ip), vehicle: saline 123 % of control | endpoint: median survival time, dose: 20.5 mg/kg/injection, schedule: Q01DX009 (ip), vehicle: saline 115 % of control | endpoint: median survival time, dose: 49.2 mg/kg/injection, schedule: Q01DX001 (ip), vehicle: saline 114 % of control | endpoint: median survival time, dose: 50.0 mg/kg/injection, schedule: Q01DX009 (ip), vehicle: saline 110 % of control and 116 % of control | endpoint: median survival time, dose: 61.4 mg/kg/injection, schedule: Q01DX001 (ip), vehicle: saline 114 % of control | endpoint: median survival time, dose: 70.0 mg/kg/injection, schedule: Q01DX009 (ip), vehicle: saline 109 % of control | endpoint: median survival time, dose: 76.8 mg/kg/injection, schedule: Q01DX001 (ip), vehicle: saline 116 % of control | endpoint: median survival time, dose: 80.0 mg/kg/injection, schedule: Q01DX009 (ip), vehicle: saline 107 % of control | endpoint: median survival time, dose: 90.0 mg/kg/injection, schedule: Q01DX009 (ip), vehicle: saline 119 % of control | endpoint: median survival time, dose: 180.0 mg/kg/injection, schedule: Q01DX009 (ip), vehicle: saline 117 % of control
